Marks after values point to notes of the source that are not given here.
Assays:
[1] = tested on: normal human prostate fibroblast (HPrF) cells; test: cells
Protocol: (§4) To determine the selectivity of LHRH-MTX, we performed a MTT experiment with normal human prostate fibroblast (HPrF) cells.
(§5) HPrF cells were exposed to MTX or [DLys^6]-LHRH-MTX at 0.015-1000 μmol/L. Growth inhibition was determined by MTT assay.
(§6) PC-3 cells and HPrF cells were maintained in T-media (Gibco Invitrogen, CA) supplemented with 10% fetal bovine serum (FBS) (Gibco Invitrogen, CA) and 1% penicillin/streptomycin (Cellgro Mediatech, nc., VA). […]
(§7) The cytotoxic effect of MTX, [Dlys^6]-LHRH, and [Dlys^6]-LHRH-MTX was evaluated using the methylthiazol tetrazolium (MTT) assay (Sigma Aldrich, MO), which determines the number of viable cells from the formazan crystals produced by metabolic activity[26][33][34]. […] The absorption at 570 nm was recorded with an ELISA plate reader (Bio-Rad, Microplate Reader 550 and the growth inhibitory (GI) rate was calculated according to the following equation: GI(%) = 100 − [T − B)/(C − B) × 100].

PC-3 tumor xenografts = test: In vivo anti-tumor activity, PC-3 tumor xenografts; set-up: species or system athymic BALB/c nude mice; details: for effect on tumor volume / Mean tumor weight / Mean tumor volume, Final: end of study; for Inhibition ratio of tumor weight / Inhibition ratio of tumor volume: against saline; for Inhibition ratio of tumor weight / Inhibition ratio of tumor volume / Mean tumor volume, Initial / Mean tumor weight / Mean tumor volume, Final / Tumor volume doubling time: n = 10; for Inhibition ratio of tumor volume / Tumor volume doubling time: i.v. twice weekly for 4 weeks; for Mean tumor volume, Initial: baseline, nude mice with PC-3 xenografts; for Mean tumor volume, Initial / Mean tumor weight / Mean tumor volume, Final: means ± SD; for Mean tumor volume, Final: i.v. tail vein twice weekly for 4 weeks; for Tumor volume doubling time: saline control 6.13 days
Protocol: Four week-old male athymic BALB/c nude mice were obtained from Sino-British SIPPR/BK Laboratory Animal Ltd (Shanghai, China). The animals were housed in sterile cages under laminar flow hoods in a temperature-controlled room with a 12h light/12h dark schedule and were fed autoclaved chow and water ad libitum.
PC-3 cells were harvested from subconfluent cultures after a brief exposure to 0.25% trypsin and 0.2% EDTA. Trypsinization was stopped by adding medium containing 10% FBS. The cells were washed once in serum-free medium and resuspended in PBS. Only suspensions consisting of single cells with >90% viability were used for the injections. PC-3 cells (1 × 10^7) in 100 μL PBS suspended in Matrigel (0.1 mg, Collaborative Biomedical Products Becton Dickinson Labware, Bedford, MA) were injected subcutaneously into the interscapular area using a 27-gauge needle.
On day 21, after PC-3 cell implantation, mice bearing tumors […] were randomized into the following four treatment groups (n = 10): saline controls, MTX treatment, [Dlys^6]-LHRH-MTX treatment and MTX plus [Dlys^6]-LHRH treatment. Treatments were made in 100 μL PBS and were given intravenously by tail vein injection twice weekly for 4 weeks. The vehicle-treated group received an equivalent amount of PBS. Tumor volumes were measured with calipers and the body weights of the mice were measured twice a week. Tumor volumes were calculated with the following formula: V(mm^3) = length × width^2/2, where width represents the shortest measurement in millimeters. The animals were euthanized 7 days after the last treatment. Body weights, tumor weights and organ weights were recorded.

LNCaP cells = test: MTT cytotoxicity assay, LNCaP cells; assay type: cell-based; details: Homo sapiens, 24 h treatment, means ± SD, n = 3
Protocol: (§1) The LNCaP cells were grown in RPMI 1640 medium(Gibco Invitrogen, CA) containing 10% FBS and 1% penicillin/streptomycin and the DU145 cells were grown in Eagle’s minimum essential medium (MEM) (Gibco Invitrogen, CA) with 2 mM L-glutamine and Earle’s BSS, 1.5 g/L sodium bicarbonate, 0.1mM non-essential amino acids, 1 mM sodium pyruvate, 10% FBS and 1% penicillin/streptomycin.
(§2) The cytotoxic effect of MTX, [Dlys^6]-LHRH, and [Dlys^6]-LHRH-MTX was evaluated using the methylthiazol tetrazolium (MTT) assay (Sigma Aldrich, MO), which determines the number of viable cells from the formazan crystals produced by metabolic activity.
(§3) In the equation, T represents the absorption value of the treatment group; C is the absorption value of the control (untreated) group; and B refers to the absorption value of the culture medium. IC50 values (μg/mL) were calculated with SPSS software. In a competition assay, Prostate cancer cells (5,000 per well) were separately incubated in 96-well plates in triplicate with [DLys^6]-LHRH–MTX alone and [DLys^6]-LHRH free peptide and [DLys^6]-LHRH–MTX together, and the cells were incubated for 24 hr. The plates were then analyzed with the MTT method.

PC-3 cells [2] = test: Apoptosis analysis, Annexin V-FITC/PI staining, flow cytometry; assay type: cell-based, human; details: 24 h; for late apoptotic/early necrotic (AV+/PI+) cells: quadrant B2; for early apoptotic (AV+/PI−) populations: quadrant B4
Protocol: To quantitatively investigate apoptotic and early necrotic events in these treated cultures, the fluorescent probe Annexin V-FITC and PI were used, The presence of a apoptotic and early necrotic cells was then determined and quantified by flow cytometry analysis which clearly differentiated normal cells with low Annexin V-FITC and low PI staining, apoptotic cells with high Annexin V-FITC and low PI staining, necrotic cells with high Annexin V-FITC and high PI staining and cell debris with low Annexin VFITC and high PI staining.
Figure 4 Quantitative apoptotic measurement in PC-3 cells after treatment with [DLys^6]-LHRH-MTX and MTX, the concentration-dependent effects on apoptosis following treatment with MTX and [DLys^6]-LHRH-MTX for 24 at doses of 0.98 μmol/L and 3.91 μmol/L were determined by flow cytometry analysis. Results were expressed as a dot plot of Annexin V -FITC vs. PI. […]
To quantitatively evaluate the induction of apoptosis by flow cytometry, Annexin-V-FITC/PI staining was performed. Briefly, PC-3 cells were seeded in a 6-well culture plate at a density of 2 × 10^5 cells per well, and treated with various concentrations of MTX or [Dlys^6]-LHRH or [Dlys^6]-LHRH-MTX for 24 h. The cells were harvested and then stained with Annexin V-FITC/PI solution (1:1, v/v, […]) in the dark for 15 min at room temperature. After washing with PBS, the cell suspensions in buffer were gently vortexed, and analyzed within 1 h by flow cytometry (Beckton Dickinson, CA, […]).

PC-3 cells [3] = test: MTT cytotoxicity assay, PC-3 cells; assay type: cell-based; details: Homo sapiens, 24 h treatment, means ± SD, n = 3
DU145 cells = test: MTT cytotoxicity assay, DU145 cells; assay type: cell-based; details: Homo sapiens, DU-145, 24 h treatment, means ± SD, n = 3
Protocol: as §1, §2, §3

[4] = tested on: normal human prostate fibroblast (HPrF) cells
Protocol: as §4, §5, §6, §7

[5] = tested on: prostate cancer cell lines (PC-3, DU145 and LNCaP); test: MTT cytotoxicity assay, prostate cancer cell lines as a group; assay type: cell-based, human; details: 24 h
Protocol: as §1, §2, §3

Row | Molecule | IC50 [1] [µM] | effect on tumor volume (PC-3 tumor xenografts; PC-3 xenografts) | Inhibition ratio of tumor weight (PC-3 tumor xenografts) [%] | Inhibition ratio of tumor volume (PC-3 tumor xenografts) [%] | Mean tumor volume, Initial (PC-3 tumor xenografts) [mm3] | Mean tumor weight (PC-3 tumor xenografts) | Mean tumor volume, Final (PC-3 tumor xenografts) | Tumor volume doubling time (PC-3 tumor xenografts) [days] | IC50 (LNCaP cells) [µM] | late apoptotic/early necrotic (AV+/PI+) cells (PC-3 cells [2]; PC-3, 0.98 μmol/L) [%] | early apoptotic (AV+/PI−) populations (PC-3 cells [2]; PC-3, 0.98 μmol/L) [%] | late apoptotic/early necrotic (AV+/PI+) cells (PC-3 cells [2]; PC-3, 3.91 μmol/L) [%] | early apoptotic (AV+/PI−) populations (PC-3 cells [2]; PC-3, 3.91 μmol/L) [%] | IC50 (PC-3 cells [3]) [µM] | IC50 (DU145 cells) [µM] | cytotoxicity against HPrF cells [4] | histology of tumor sections, hematoxylin/eosin (PC-3 tumor xenografts; PC-3 xenografts, Fig. 7) | tumor burden (PC-3 tumor xenografts; day 30, n = 10, Fig. 6) | cytotoxicity against prostate cancer cell lines [5]
1 | CN(Cc1cnc2nc(N)nc(N)c2n1)c1ccc(C(=O)N[C@@H](CCC(=O)O)C(=O)O)cc1 [MTX, Methotrexate] | 42.3 ± 7.25 | significant anti-tumor effects | 59.90 | 61.88 | 63.38 ± 7.38 | 0.82 ± 0.12 ^a g | 700.39 ± 36.48 ^a mm3 | 8.88 | 9.68 ± 1.24 | 8.35 | 15.38 | 9.52 | 30.88 | 6.34 ± 1.01 | 8.03 ± 1.29 |  |  |  | 
2 | [DLys^6]-LHRH |  | did not affect the tumor volume | 4.41 | 2.88 | 62.49 ± 13.70 | 1.95 ± 0.34 g | 1784.58 ± 95.99 mm3 | 6.13 |  |  |  |  |  |  |  | no cytotoxicity | predominantly viable cells | unchanged | no cytotoxicity

From paper PMC5032167, “A conjugate of methotrexate and an analog of luteinizing hormone releasing hormone shows increased efficacy against prostate cancer” (Scientific Reports, 2016)
